Results: patent publication US20240366612A1, “COMPOUNDS AND METHODS FOR MODULATING NUCLEIC ACID SPLICING” (REMIX THERAPEUTICS INC., priority 2021, published 2024)

Experiments:
[1] = test system: MYB mRNA; assay: Splicing RT-qPCR assay, MYB canonical (CJ) and alternative (AJ) junction mRNA; format: cell-based; details: Homo sapiens, A673 or K562 cells, 24 hours treatment; for IC50: decrease in CJ mRNA; for AC50: increase in AJ mRNA
Experimental: Compounds described herein were used to modulate RNA transcript abundance in cells. The expression of a target mRNA was measured by detecting the formation of an exon-exon junction in the canonical transcript (CJ). A compound mediated exon-inclusion event was detected by observing an increase in formation of a new junction with an alternative exon (AJ). Real-time qPCR assays were used to detect these splicing switches and interrogate the potency of various compounds towards different target genes. A high-throughput real time quantitative PCR (RT-qPCR) assay was developed to measure these two isoforms of the mRNA (CJ and AJ) for exemplary genes, such as HTT, SMN2, and MYB, together with a control housekeeping gene, GAPDH or GUSB or PPIA, used for normalization. Briefly, the A673 or K562 cell line was treated with various compounds described herein (e.g., compounds of Formula (I)). After treatment, the levels of the HTT, MYB, or SMN2 mRNA targets were determined from each sample of cell lysate by cDNA synthesis followed by qPCR.
• Cells-to-CT 1-step kit: ThermoFisher A25602, Cells-to-CT lysis reagent: ThermoFisher 4391851C, TaqMan™ Fast Virus 1-Step Master Mix: ThermoFisher 4444436 • GAPDH: VIC-PL, ThermoFisher 4326317E (Assay: Hs99999905_ml)—used for K562/suspension cell lines • GUSB: VIC-PL, ThermoFisher 4326320E (Assay: Hs99999908_ml)—used for K562/suspension cell lines • PPIA: VIC-PL, ThermoFisher 4326316E (Assay: Hs99999904_ml)—used for A673/adherent cell lines
The A673 cell line was cultured in DMEM with 10% FBS. Cells were diluted with full growth media and plated in a 96-well plate (15,000 cells in 100 ul media per well). The plate was incubated at 37° C. with 5% CO2 for 24 hours to allow cells to adhere. An 11-point 3-fold serial dilution of the compounds was made in DMSO then diluted in media in an intermediate plate. Compounds were transferred from the intermediate plate to the cell plate with the top dose at a final concentration of 10 uM in the well. Final DMSO concentration was kept at or below 0.25%. The cell plate was returned to the incubator at 37° C. with 5% CO2 for an additional 24 hours.
The K562 cell line was cultured in IMDM with 10% FBS. For K562, cells were diluted with full growth media and plated in either a 96-well plate (50,000 cells in 50 uL media per well) or a 384-well plate (8,000-40,000 cells in 45 uL media per well). An 11-point 3-fold serial dilution of the compounds were made in DMSO then diluted in media in an intermediate plate. Compound was transferred from the intermediate plate to the cell plate with the top dose at a final concentration of 10 uM in the well. Final DMSO concentration was kept at or below 0.25%. Final volume was 100 uL for 96-well plate and 50 uL for 384-well plate. The cell plate was then placed in an incubator at 37° C. with 5% CO2 for 24 hours.
The cells were then gently washed with 50 uL-100 uL cold PBS before proceeding to addition of lysis buffer. 30 uL-50 μL of room temperature lysis buffer with DNAse I (and optionally RNAsin) was added to each well. Cells were shaken/mixed thoroughly at room temperature for 5-10 minutes for lysis to take place and then 3 uL-5 μL of room temperature stop solution was added and wells were shaken/mixed again. After 2-5 minutes, the cell lysate plate was transferred to ice for RT-qPCR reaction setup. The lysates could also be frozen at −80° C. for later use.
In some cases, a direct lysis buffer was used. An appropriate volume of 3×lysis buffer (10 mM Tris, 150 mM NaCl, 1.5%-2.5% Igepal and 0.1-1 U/uL RNAsin, pH 7.4) was directly added to either K562 or A673 cells in media and mixed by pipetting 3 times. The plates were then incubated at room temperature with shaking/rocking for 20-50 minutes to allow for lysis to take place. After this time, the cell lysate plate was transferred to ice to set up for the RT-qPCR reactions. The lysates could also be frozen at −80° C. for later use. […]

[2] = test system: HiBiT-tagged MYB protein in K562 cells; assay: HiBiT protein abundance assay, MYB; format: cell-based, human; details: HiBiT-modified K562 cells, 24 hours, luminescence
Experimental: (§1) Compounds described herein were used to screen for effects on quantitative protein abundance using a HiBit assay system (Promega). Quantitative protein abundance was determined by measuring the protein levels of HiBit-tagged protein targets expressed in cell culture via luminescence using the Nano-Glo HiBiT Lytic Detection System, which uses a split complementation assay format to reconstitute NanoBiT enzyme to generate a luminescent signal. A protein abundance assay was developed such that endogenous protein targets could be modified with the HiBiT peptide tag and their abundance could be assessed after compound treatment. Briefly, K562 cell lines containing a HiBiT-modification were treated with various compounds described herein (e.g., compounds of Formulas (I), (II), or (III)). After treatment for 24 hours, the protein abundance of a specific target was determined by measuring luminescence.
(§2) • Promega Nano-Glo HiBiT Lytic Detection System (cat #N3030) • Corning 384-well TC-treated microplates (cat #3570) • Synthego Engineered Cells Knock-In Clones
(§3) Cells were maintained in IMDM with 10% FBS. Before the assay, cells were diluted with […] growth media (IMDM+1% FBS media) and were seeded in a 384-well plate at a density of 10000 cells/well (for each cell line listed in Table 5). Each compound was prepared as a 10-point 3-fold serial dilution in DMSO with the top dose at a final concentration of 10 μM in the well. Unmodified K562 cells were added at the previously specified density with DMSO to serve as an assay baseline and positive control (PC) and DMSO only with the respective modified cell lines was added to the negative control (NC) columns. Final DMSO concentration was kept at or below 0.25%. Treated cell plates were placed in an incubator at 37° C. with 5% CO2 for 24 hours. After 24 hours, 25 μL of Complete HiBit Lytic reagent was added to each well at room temperature (e.g. one plate requiring 10 mL Lytic Buffer, 100 μL LgBiT Protein, 200 μL Lytic Substrate), shaken for 5 minutes at 600 RPM, then left to sit for 10 minutes for signal to stabilize before reading on a Spark Cyto plate reader (Tecan) with a 500 ms measurement time.
(§4) To determine compound effects on protein abundance of each target in Table 5, the percent response for each respective cell line was calculated at each compound concentration as follows:
(§5) For the normalized response at each concentration, a four-parameter logistical regression was fit to the data and the response was interpolated at the 50% value to determine a concentration for protein abundance at 50% (IC50) the untreated control.

[3] = test system: HiBiT-tagged Target C protein in K562 cells; assay: HiBiT protein abundance assay, Target C; format: cell-based, human; details: HiBiT-modified K562 cells, 24 hours, luminescence
Experimental: as §1, §2, §3, §4, §5

[4] = test system: HiBiT-tagged HTT protein in K562 cells; assay: HiBiT protein abundance assay, HTT; format: cell-based, human; details: HiBiT-modified K562 cells, 24 hours, luminescence
Experimental: as §1, §2, §3, §4, §5

Compound | IC50 [1] | IC50 [2] | IC50 [3] | IC50 [4] | AC50 [1]
Cc1cc(-c2cc(=O)n3cc(N4CCN(C)CC4)sc3n2)cc2cn(C)nc12 [Compound 109, 7-(2,7-dimethyl-2H-indazol-5-yl)-2-(4-methylpiperazin-1-yl)-5H-thiazolo[3,2-a]pyrimidin-5-one] | > 10000 nM | > 10000 nM | > 10000 nM | > 10000 nM | 1000 to 10000 nM
Cc1cn2nc(-c3cc(=O)n4cc(N(C)C5CC(C)(C)NC(C)(C)C5)sc4n3)cc(C)c2n1 [Compound 205, 7-(2,8-dimethylimidazo[1,2-b]pyridazin-6-yl)-2-(methyl(2,2,6,6-tetramethylpiperidin-4-yl)amino)-5H-thiazolo[3,2-a]pyrimidin-5-one] | 1000 to 10000 nM | 1000 to 10000 nM | 1000 to 10000 nM | 1000 to 10000 nM | 1000 to 10000 nM
COc1cc(-c2cc3ncn(C4CCNCC4)c(=O)c3s2)cnn1 [Compound 260] | 1000 to 10000 nM | 1000 to 10000 nM | 1000 to 10000 nM | 1000 to 10000 nM | 1000 to 10000 nM
Cc1nc(-c2nc3ncn(C4CCNCC4)c(=O)c3s2)cc2cn(C)nc12 [Compound 251, 2-(2,7-dimethyl-2H-pyrazolo[3,4-c]pyridin-5-yl)-6-(piperidin-4-yl)thiazolo[4,5-d]pyrimidin-7(6H)-one] | 1000 to 10000 nM | 1000 to 10000 nM | > 10000 nM | 1000 to 10000 nM | > 10000 nM
Cc1cn2cc(-n3cnc4nc(N5CCN(C)CC5)sc4c3=O)cc(F)c2n1 [Compound 228, 6-(8-fluoro-2-methylimidazo[1,2-a]pyridin-6-yl)-2-(4-methylpiperazin-1-yl)thiazolo[4,5-d]pyrimidin-7(6H)-one] | 1000 to 10000 nM | 1000 to 10000 nM | 1000 to 10000 nM | 1000 to 10000 nM | 1000 to 10000 nM

Second part, led by results:

IC50 [1] | IC50 [2] | IC50 [3] | IC50 [4] | Compound | AC50 [1]
100 to 1000 nM | 100 to 1000 nM | 100 to 1000 nM | 100 to 1000 nM | Cc1cn2cc(-c3cc4ncn(C5=CCNCC5)c(=O)c4s3)cc(F)c2n1 [Compound 276, 6-{8-fluoro-2-methylimidazo[1,2-a]pyridin-6-yl}-3-(1,2,3,6-tetrahydropyridin-4-yl)thieno[3,2-d]pyrimidin-4-one] | 100 to 1000 nM
100 to 1000 nM | 100 to 1000 nM | 1000 to 10000 nM | 100 to 1000 nM | Cc1cn2cc(-c3cc4ccn(C5CCN(C)CC5)c(=O)c4s3)cc(F)c2n1 [Compound 808, 2-(8-fluoro-2-methylimidazo[1,2-a]pyridin-6-yl)-6-(1-methylpiperidin-4-yl)thieno[2,3-c]pyridin-7(6H)-one] | 100 to 1000 nM
1000 to 10000 nM | 1000 to 10000 nM | 1000 to 10000 nM | 1000 to 10000 nM | Cc1cn2cc(-c3cc(=O)n4nc(N5CCN(C)CC5)sc4n3)cc(F)c2n1 [Compound 159, 7-(8-fluoro-2-methylimidazo[1,2-a]pyridin-6-yl)-2-(4-methylpiperazin-1-yl)-5H-[1,3,4]thiadiazolo[3,2-a]pyrimidin-5-one] | 1000 to 10000 nM
100 to 1000 nM | < 100 nM | 100 to 1000 nM | < 100 nM | Cc1cc(-c2cc3ncn(C4CCNCC4)c(=O)c3s2)cc2cn(C)nc12 [Compound 236, 6-(2,7-dimethyl-2H-indazol-5-yl)-3-(piperidin-4-yl)thieno[3,2-d]pyrimidin-4(3H)-one] | 100 to 1000 nM
1000 to 10000 nM | 1000 to 10000 nM | 1000 to 10000 nM | 1000 to 10000 nM | Cc1cn2cc(-c3nn4c(=O)cc(N5CCN(C)CC5)nc4s3)cc(F)c2n1 [Compound 217, 2-(8-fluoro-2-methylimidazo[1,2-a]pyridin-6-yl)-7-(4-methylpiperazin-1-yl)-5H-[1,3,4]thiadiazolo[3,2-a]pyrimidin-5-one] | 1000 to 10000 nM
100 to 1000 nM | 100 to 1000 nM | 100 to 1000 nM | 100 to 1000 nM | Cc1cn2nc(-c3cc4ccn(C5CCNCC5)c(=O)c4s3)cc(C)c2n1 [Compound 806, 2-(2,8-dimethylimidazo[1,2-b]pyridazin-6-yl)-6-(piperidin-4-yl)thieno[2,3-c]pyridin-7(6H)-one] | 100 to 1000 nM
